Key:
[1] = test system: nutsedge, yellow; assay: Test C postemergence; format: in vivo, Cyperus esculentus
Outline: (§1)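 Preemergence: seeds sown in loam soil–sand blend and treated with test chemicals formulated in a non-phytotoxic solvent mixture containing a surfactant. Postemergence: plants grown in peat moss/vermiculite-based medium and sprayed with the same formulation at 2 to 18 cm height (1- to 4-leaf stage).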

[2] = test system: oilseed rape; assay: Test C postemergence; format: in vivo, Brassica napus
Outline: as §1

[3] = test system: sedge, umbrella; assay: Test B flooded paddy test; format: in vivo, Cyperus difformis; conditions: Cyperus difformis, 360 h, 125 g ai/ha, applied to paddy water at 2-leaf stage, visual rating after 13 to 15 d, scale 0 (no effect) to 100 (complete control), read-out: Plant response rating, Sedge, Umbrella, Flood
Outline: (§2)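 Pots were flooded to 3 cm above the soil at treatment, and compounds were applied directly into the paddy water. That depth was held throughout. After 13 to 15 d in a greenhouse, plants were rated visually against untreated controls.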

[4] = test system: soybean; assay: Test C postemergence; format: in vivo, Glycine max
Outline: as §1

[5] = test system: lambsquarters; assay: Test C postemergence; format: in vivo, Chenopodium album
Outline: as §1

[6] = test system: oat, wild; assay: Test C postemergence; format: in vivo, Avena fatua
Outline: as §1

[7] = test system: waterhemp; assay: Test C postemergence; format: in vivo, Amaranthus rudis
Outline: as §1

[8] = test system: chickweed; assay: Test C postemergence; format: in vivo, Stellaria media
Outline: as §1

[9] = test system: blackgrass; assay: Test C postemergence; format: in vivo, Alopecurus myosuroides
Outline: as §1

[10] = test system: barnyardgrass; assay: Test C postemergence; format: in vivo, Echinochloa crus-galli
Outline: as §1

[11] = test system: wheat (winter wheat); assay: Test C postemergence; format: in vivo, Triticum aestivum
Outline: as §1

[12] = test system: galium; assay: Test C postemergence; format: in vivo, Galium aparine
Outline: as §1

[13] = test system: barnyardgrass; assay: Test B flooded paddy test; format: in vivo, Echinochloa crus-galli; conditions: Echinochloa crus-galli, 360 h, 125 g ai/ha, applied to paddy water at 2-leaf stage, visual rating after 13 to 15 d, scale 0 (no effect) to 100 (complete control), read-out: Plant response rating, Barnyardgrass, Flood
Outline: as §2

[14] = test system: pigweed; assay: Test A postemergence; format: in vivo, Amaranthus retroflexus; conditions: Amaranthus retroflexus, post-emergence, 240 h, 0 to 100 scale (0 no effect, 100 complete control), approx. 10 d, read-out: Plant response rating, Pigweed
Outline: (§3)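 Plant seeds in loam soil blended with sand, then apply test chemical preemergence as a directed soil spray; in parallel, spray potted seedlings (one- to two-leaf, 2 to 10 cm) postemergence. Both treatments use a non-phytotoxic solvent mixture with surfactant.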

[15] = test system: corn; assay: Test C postemergence; format: in vivo, Zea mays
Outline: as §1

[16] = test system: wheat; assay: Test A postemergence; format: in vivo, Triticum aestivum; conditions: Triticum aestivum, post-emergence, 240 h, 0 to 100 scale (0 no effect, 100 complete control), approx. 10 d, read-out: Plant response rating, Wheat
Outline: as §3

[17] = test system: foxtail, giant; assay: Test C postemergence; format: in vivo, Setaria faberii
Outline: as §1

[18] = test system: foxtail, giant; assay: Test A postemergence; format: in vivo, Setaria faberii; conditions: Setaria faberi, post-emergence, 240 h, 0 to 100 scale (0 no effect, 100 complete control), approx. 10 d, read-out: Plant response rating, Foxtail, Giant
Outline: as §3

[19] = test system: pigweed; assay: Test A preemergence; format: in vivo, Amaranthus retroflexus; conditions: Amaranthus retroflexus, pre-emergence, 240 h, 0 to 100 scale (0 no effect, 100 complete control), read-out: Plant response rating, Pigweed
Outline: as §3

[20] = test system: ryegrass, Italian; assay: Test C postemergence; format: in vivo, Lolium multiflorum
Outline: as §1

## CCOc1nc(-c2ccc(F)cc2)nn1Cc1ccnc(C(F)(F)F)c1 [Compound 8, 4-[[5-ethoxy-3-(4-fluorophenyl)-1H-1,2,4-triazol-1-yl]methyl]-2-(trifluoromethyl)pyridine]
[1]; 31 g ai/ha
  Plant response rating (scale of 0 to 100 where 0 is no effect and 100 is complete control): 5
[1]; 62 g ai/ha
  Plant response rating (scale of 0 to 100 where 0 is no effect and 100 is complete control): 10
[1]; 125 g ai/ha
  Plant response rating (scale of 0 to 100 where 0 is no effect and 100 is complete control): 10
[1]; 250 g ai/ha
  Plant response rating (scale of 0 to 100 where 0 is no effect and 100 is complete control): 10
[2]; Oilsee Rape, 250 g ai/ha
  Plant response rating (scale of 0 to 100 where 0 is no effect and 100 is complete control): 95
[2]; Oilseed Rape, 31 g ai/ha
  Plant response rating (scale of 0 to 100 where 0 is no effect and 100 is complete control): 90
[2]; Oilseed Rape, 62 g ai/ha
  Plant response rating (scale of 0 to 100 where 0 is no effect and 100 is complete control): 95
[2]; Oilseed Rape, 125 g ai/ha
  Plant response rating (scale of 0 to 100 where 0 is no effect and 100 is complete control): 95
[3]
  pest or weed control at 125 g/ha: 90%
[4]; 31 g ai/ha
  Plant response rating (scale of 0 to 100 where 0 is no effect and 100 is complete control): 65
[4]; 62 g ai/ha
  Plant response rating (scale of 0 to 100 where 0 is no effect and 100 is complete control): 75
[4]; 125 g ai/ha
  Plant response rating (scale of 0 to 100 where 0 is no effect and 100 is complete control): 95
[4]; 250 g ai/ha
  Plant response rating (scale of 0 to 100 where 0 is no effect and 100 is complete control): 85
[5]; 31 g ai/ha
  Plant response rating (scale of 0 to 100 where 0 is no effect and 100 is complete control): 95
[5]; 62 g ai/ha
  Plant response rating (scale of 0 to 100 where 0 is no effect and 100 is complete control): 98
[5]; 125 g ai/ha
  Plant response rating (scale of 0 to 100 where 0 is no effect and 100 is complete control): 95
[5]; 250 g ai/ha
  Plant response rating (scale of 0 to 100 where 0 is no effect and 100 is complete control): 98
[6]; 31 g ai/ha
  Plant response rating (scale of 0 to 100 where 0 is no effect and 100 is complete control): 45
[6]; 62 g ai/ha
  Plant response rating (scale of 0 to 100 where 0 is no effect and 100 is complete control): 50
[6]; 125 g ai/ha
  Plant response rating (scale of 0 to 100 where 0 is no effect and 100 is complete control): 35
[6]; 250 g ai/ha
  Plant response rating (scale of 0 to 100 where 0 is no effect and 100 is complete control): 45
[7]; 31 g ai/ha
  Plant response rating (scale of 0 to 100 where 0 is no effect and 100 is complete control): 95
[7]; 62 g ai/ha
  Plant response rating (scale of 0 to 100 where 0 is no effect and 100 is complete control): 98
[7]; 125 g ai/ha
  Plant response rating (scale of 0 to 100 where 0 is no effect and 100 is complete control): 95
[7]; 250 g ai/ha
  Plant response rating (scale of 0 to 100 where 0 is no effect and 100 is complete control): 98
[8]; 31 g ai/ha
  Plant response rating (scale of 0 to 100 where 0 is no effect and 100 is complete control): 85
[8]; 62 g ai/ha
  Plant response rating (scale of 0 to 100 where 0 is no effect and 100 is complete control): 98
[8]; 125 g ai/ha
  Plant response rating (scale of 0 to 100 where 0 is no effect and 100 is complete control): 98
[8]; 250 g ai/ha
  Plant response rating (scale of 0 to 100 where 0 is no effect and 100 is complete control): 98
[9]; 31 g ai/ha
  Plant response rating (scale of 0 to 100 where 0 is no effect and 100 is complete control): 50
[9]; 62 g ai/ha
  Plant response rating (scale of 0 to 100 where 0 is no effect and 100 is complete control): 40
[9]; 125 g ai/ha
  Plant response rating (scale of 0 to 100 where 0 is no effect and 100 is complete control): 55
[9]; 250 g ai/ha
  Plant response rating (scale of 0 to 100 where 0 is no effect and 100 is complete control): 75
[10]; 31 g ai/ha
  Plant response rating (scale of 0 to 100 where 0 is no effect and 100 is complete control): 10
[10]; 62 g ai/ha
  Plant response rating (scale of 0 to 100 where 0 is no effect and 100 is complete control): 20
[10]; 125 g ai/ha
  Plant response rating (scale of 0 to 100 where 0 is no effect and 100 is complete control): 40
[10]; 250 g ai/ha
  Plant response rating (scale of 0 to 100 where 0 is no effect and 100 is complete control): 75
[11]; 31 g ai/ha
  Plant response rating (scale of 0 to 100 where 0 is no effect and 100 is complete control): 30
[11]; 62 g ai/ha
  Plant response rating (scale of 0 to 100 where 0 is no effect and 100 is complete control): 35
[11]; 125 g ai/ha
  Plant response rating (scale of 0 to 100 where 0 is no effect and 100 is complete control): 30
[11]; 250 g ai/ha
  Plant response rating (scale of 0 to 100 where 0 is no effect and 100 is complete control): 40
[12]; 31 g ai/ha
  Plant response rating (scale of 0 to 100 where 0 is no effect and 100 is complete control): 80
[12]; 62 g ai/ha
  Plant response rating (scale of 0 to 100 where 0 is no effect and 100 is complete control): 95
[12]; 125 g ai/ha
  Plant response rating (scale of 0 to 100 where 0 is no effect and 100 is complete control): 95
[12]; 250 g ai/ha
  Plant response rating (scale of 0 to 100 where 0 is no effect and 100 is complete control): 95
[13]
  pest or weed control at 125 g/ha: 50%
[14]; 125 g ai/ha
  pest or weed control at 125 g/ha: 100%
[14]; 500 g ai/ha
  pest or weed control at 500 g/ha: 100%
[15]; 31 g ai/ha
  Plant response rating (scale of 0 to 100 where 0 is no effect and 100 is complete control): 10
[15]; 62 g ai/ha
  Plant response rating (scale of 0 to 100 where 0 is no effect and 100 is complete control): 15
[15]; 125 g ai/ha
  Plant response rating (scale of 0 to 100 where 0 is no effect and 100 is complete control): 25
[15]; 250 g ai/ha
  Plant response rating (scale of 0 to 100 where 0 is no effect and 100 is complete control): 40
[16]; 125 g ai/ha
  plant injury at 125 g/ha: 40%
[16]; 500 g ai/ha
  plant injury at 500 g/ha: 100%
[17]; 31 g ai/ha
  Plant response rating (scale of 0 to 100 where 0 is no effect and 100 is complete control): 20
[17]; 62 g ai/ha
  Plant response rating (scale of 0 to 100 where 0 is no effect and 100 is complete control): 40
[17]; 125 g ai/ha
  Plant response rating (scale of 0 to 100 where 0 is no effect and 100 is complete control): 55
[17]; 250 g ai/ha
  Plant response rating (scale of 0 to 100 where 0 is no effect and 100 is complete control): 85
[18]; 125 g ai/ha
  pest or weed control at 125 g/ha: 100%
[18]; 500 g ai/ha
  pest or weed control at 500 g/ha: 100%
[19]; 125 g ai/ha
  pest or weed control at 125 g/ha: 100%
[19]; 500 g ai/ha, approx. 10 d
  pest or weed control at 500 g/ha: 100%
[20]; 31 g ai/ha
  Plant response rating (scale of 0 to 100 where 0 is no effect and 100 is complete control): 30
[20]; 62 g ai/ha
  Plant response rating (scale of 0 to 100 where 0 is no effect and 100 is complete control): 35
[20]; 125 g ai/ha
  Plant response rating (scale of 0 to 100 where 0 is no effect and 100 is complete control): 35
[20]; 250 g ai/ha
  Plant response rating (scale of 0 to 100 where 0 is no effect and 100 is complete control): 50

From US10681909B2, “Herbicidal triazoles” (FMC Corporation, priority 2014, dated 2020)
